In ChEMBL document CHEMBL3872286, “Identification and Mechanistic Evaluation of Hemozoin-Inhibiting Triarylimidazoles Active against Plasmodium falciparum” (ACS Med Chem Lett, 2017):
Activity calls are given as the source filed them. No cut-off for these calls is given here.

Tests used:
[1] = Inhibition of beta-hematin formation incubated for 5 to 6 hrs by NP40 detergent-mediated assay
[2] = Resistance index, ratio of IC50 for chloroquine-resistant asexual erythrocyte stage of Plasmodium falciparum K1 infected in human type O+ erythrocytes to IC50 for chloroquine-sensitive asexual erythrocyte stage of Plasmodium falciparum NF54 infected in human type O+ erythrocytes; assay type: functional
Plasmodium falciparum [3] = test: Antimalarial activity against chloroquine-resistant asexual erythrocyte stage of Plasmodium falciparum K1 infected in human type O+ erythrocytes assessed as growth inhibition incubated for 48 hrs by NBT dye based LDH release assay; assay type: functional, cell-based; details: K1, 48 h
Plasmodium falciparum [4] = test: Antimalarial activity against chloroquine-sensitive asexual erythrocyte stage of Plasmodium falciparum NF54 infected in human type O+ erythrocytes assessed as growth inhibition incubated for 48 hrs by NBT dye based LDH release assay; assay type: functional, cell-based; details: NF54, 48 h
Plasmodium falciparum [5] = test: Antimalarial activity against chloroquine-sensitive asexual erythrocyte stage of Plasmodium falciparum D6 infected in human type O+ erythrocytes assessed as growth inhibition incubated for 48 hrs by NBT dye based LDH release assay; assay type: functional, cell-based; details: D6, 48 h
Plasmodium falciparum [6] = test: Inhibition of beta-hematin formation in human erythrocytes infected with chloroquine-sensitive Plasmodium falciparum D6 assessed as increase in intracellular free heme level by SYBR Green I fluorescence assay; parameters: scale not given: the % may be the effect or the level left
Plasmodium falciparum [7] = test: Antimalarial activity against chloroquine-sensitive asexual erythrocyte stage of Plasmodium falciparum NF54 infected in human type O+ erythrocytes assessed as decrease in DNA level by flow cytometry; assay type: functional, cell-based
[8] = Selectivity index, ratio of cytotoxic activity against CHO cells to IC50 for Plasmodium falciparum infected in human type O+ erythrocytes; assay type: toxicity, cell-based; details: hamster, read-out: Selectivity Index
Plasmodium falciparum [9] = test: Antimalarial activity against chloroquine-sensitive asexual erythrocyte stage of Plasmodium falciparum NF54 infected in human type O+ erythrocytes assessed as smaller and less complex DNA by flow cytometry; assay type: functional, cell-based
[10] = Cytotoxicity against CHO cells assessed as decrease in cell viability by MTT assay; assay type: toxicity, cell-based, Cricetulus griseus; details: chinese hamster
Plasmodium falciparum [11] = test: Antimalarial activity against chloroquine-sensitive asexual erythrocyte stage of Plasmodium falciparum NF54 infected in human type O+ erythrocytes assessed as pyknosis at 3 times IC50 by light microscopy; assay type: functional, cell-based
Plasmodium falciparum [12] = test: Antimalarial activity against chloroquine-sensitive Plasmodium falciparum D6 infected in human erythrocytes assessed as inhibition of beta-hematin formation by measuring increase in intracellular free heme level; assay type: functional, cell-based
Plasmodium falciparum [13] = test: Antimalarial activity against chloroquine-resistant asexual erythrocyte stage of Plasmodium falciparum K1 infected in human type O+ erythrocytes assessed as growth inhibition incubated for 72 hrs by NBT dye based LDH release assay; assay type: functional, cell-based; details: K1, 72 h
Plasmodium falciparum [14] = test: Antimalarial activity against chloroquine-sensitive Plasmodium falciparum D6 infected in human erythrocytes assessed as inhibition of beta-hematin formation by measuring increase in intracellular free heme level at 2.5 times IC50; assay type: functional, cell-based; parameters: scale not given: the % may be the effect or the level left

Row | IC50 [1] [µM] | Structure (SMILES) | IC50 (Plasmodium falciparum [4]) [µM] | IC50 (Plasmodium falciparum [5]) [µM] | also measured
1 | 12.7 | Brc1ccc2[nH]cc(-c3nc(-c4ccccc4)c(-c4ccccc4)[nH]3)c2c1 | – | 2.24 | –
2 | 347 | Oc1ccc(-c2ncc[nH]2)cc1 | > 20 | – | –
3 | 5.6 | Oc1ccc(-c2nc(-c3ccccc3)c(-c3ccc(Br)cc3)[nH]2)cc1 | – | 9.06 | Activity (Plasmodium falciparum [6]): 43%
4 | > 1000 | FC(F)(F)Oc1ccc(-c2nc(-c3ccccc3)c(-c3ccccc3)[nH]2)cc1 | 4.2 | – | Activity (Plasmodium falciparum [7]): Active; selectivity ratio [8]: 6.9; Activity (Plasmodium falciparum [9]): Active; Activity [10]: 29 µM; Activity (Plasmodium falciparum [11]): Active
5 | 16.1 | Nc1ccc(-c2nc(-c3ccccc3)c(-c3ccccc3)[nH]2)cc1 | 42 | – | –
6 | 19 | O=[N+]([O-])c1ccc(-c2nc(-c3ccccc3)c(-c3ccccc3)[nH]2)cc1 | 15 | – | selectivity ratio [8]: 7.8; Activity [10]: 149 µM; Activity (Plasmodium falciparum [12]): > 20 fg
7 | 10.9 | COc1cc(-c2nc(-c3ccccc3)c(-c3ccccc3)[nH]2)cc(OC)c1OC | 3 | – | –
8 | 12.6 | COc1cc(-c2nc(-c3ccccc3)c(-c3ccc(Br)cc3)[nH]2)cc(OC)c1O | – | 0.31 | –
9 | 6.2 | COc1cc(-c2nc(-c3ccc4c(c3)S(=O)(=O)c3ccccc3-4)c(-c3ccccc3)[nH]2)cc(OC)c1O | – | 0.61 | –
10 | 315 | CCN(CC)CCCC(C)Nc1ccnc2cc(Cl)ccc12 (stereo not given) [CHLOROQUINE] | – | – | –
11 | 10 | COc1cc(OC)c(-c2nc(-c3ccsc3)c(-c3ccccc3)[nH]2)cc1OC | – | 11.7 | –
12 | 25.4 | c1ccc(-c2nc(-c3ccncc3)[nH]c2-c2ccccc2)cc1 | – | 10.8 | –
13 | > 1000 | c1ccc(-c2nc(-c3ccccc3)c(-c3ccccc3)[nH]2)cc1 | – | > 20 | –
14 | 17.7 | Oc1ccc(-c2nc(-c3ccccc3)c(-c3ccccc3)[nH]2)cc1 | > 32 | – | –
15 | 2.4 | COc1cc(-c2nc(-c3ccccc3)c(-c3ccc(O)cc3)[nH]2)cc(OC)c1O | – | 0.7 | –
16 | 18.7 | CCOc1cc(-c2nc(-c3ccc(F)cc3)c(-c3ccc(F)cc3)[nH]2)ccc1O | – | 2.4 | –

Row | Structure (SMILES) | IC50 [1] [µM] | IC50 (Plasmodium falciparum [4]) [µM] | IC50 (Plasmodium falciparum [5]) [µM] | also measured
17 | COc1cc(OC)cc(-c2nc(-c3ccccc3)c(-c3ccc(Cl)cc3)[nH]2)c1 | 16.6 | 1.7 | – | Ratio IC50 [2]: 1.6; IC50 (Plasmodium falciparum [3]): 2.7 µM
18 | c1ccc(-c2ncc[nH]2)cc1 [2-PHENYLIMIDAZOLE] | > 1000 | – | – | –
19 | COc1cc(OC)cc(-c2nc(-c3ccccc3)c(-c3ccccc3)[nH]2)c1 | 14.6 | 7 | – | selectivity ratio [8]: > 206; IC50 (Plasmodium falciparum [13]): 4.7 µM; Activity [10]: > 269 µM; Activity (Plasmodium falciparum [12]): Dose dependent effect; Activity (Plasmodium falciparum [14]): > 50%; Ratio IC50 [2]: 0.7
20 | COc1cc(-c2nc(-c3ccccc3)c(-c3ccccc3)[nH]2)cc(OC)c1O | 10.2 | 1.3 | – | Ratio IC50 [2]: 1.5; IC50 (Plasmodium falciparum [3]): 1.9 µM
21 | COc1ccc(-c2nc(-c3cc(OC)cc(OC)c3)[nH]c2-c2ccc(OC)cc2)cc1 | 13.8 | 1.7 | – | selectivity ratio [8]: > 141; Activity [10]: > 240 µM; Activity (Plasmodium falciparum [12]): Dose dependent effect; Activity (Plasmodium falciparum [14]): > 50%; Ratio IC50 [2]: 1.1; IC50 (Plasmodium falciparum [3]): 1.8 µM
